“Also recorded” adds a separate entry of the source.
Tests used:
[1] = system: Bcl-2, Mcl-1, Bcl-XL expression in HL-60 cells; assay: RT-PCR and Western blot of anti-apoptotic proteins in HL-60 cells; type: cell-based, human; parameters: transcription of Bcl-2: dose or concentration left out as unconfirmed
Procedure: Total RNA was isolated using the Aurum RNA Isolation Mini Kit, and the iScript cDNA Synthesis Kit was used to prepare samples for qPCR (Bio-Rad). PCR was performed on the CFX384 Real-Time System (Bio-Rad) and results were analyzed using the Livak method. For analysis of RNA-seq data as target genes of known transcription factors, a curated list of all human target genes was extracted from the TRANSFAC Pro database.
Cells were lysed in RIPA buffer (Sigma), and the protein concentrations were determined by BCA assay (Thermo Scientific Pierce). Lysates were solubilized in 6×SDS PAGE buffer and […] of protein was loaded into 6-15% SDS PAGE gels, pheresed, and then transferred onto […] PVDF membrane (Millipore). Primary antibodies were applied at a dilution of 1:1000. Anti-Bcl-2, -Bax, -Mcl-1, -Bcl-XL, -Cyclin A and -Cyclin D1 antibodies were purchased from Cell Signaling Technologies. Anti-total acetylated histone and -ac-H3K27 were purchased from Santa Cruz Biotechnologies. Anti-actin and -CREB antibodies were purchased from upstate. Secondary antibodies were used at a 1:2500 dilution and purchased from Thermo Scientific/Pierce. WesternBright ECL was used for image acquisition on Image Lab software (Bio-Rad).
The balance between pro- and anti-apoptotic protein expression contributes to cell fate decisions. CREB regulates the expression of several anti-apoptotic proteins, including Bcl-2, Bcl-XL and Mcl-1. Bcl-2 expression in particular is known to mediate resistance to chemotherapy and influence clinical outcome in a number of cancer types, including AML. The ability of Compound A to cause apoptosis by disrupting the CREB-driven expression of these anti-apoptotic proteins was examined. In HL-60 cells treated with Compound A, apoptosis is induced in a dose- and time-dependent manner. […] Compound A elicited apoptosis through the intrinsic apoptosis pathway, with activation of Caspase-3 (FIG. 5, panel B) and detectable Caspase-9 cleavage (data not shown). […]

[2] = system: CREB-driven promoter (CRE); assay: CREB-driven (CRE) luciferase reporter in KG-1 cells; type: cell-based; details: 6 hours
Procedure: KG-1 cell lines were created to express luciferase in a CREB-dependent or non-CREB-dependent fashion using lentiviral gene delivery. Cells were sorted for mCherry expression by flow cytometry and selected with puromycin. Luciferase activity was measured on a […] using the Promega Luciferase Activity Kit (Promega) per manufacturer's instructions following six hours of treatment with Compound A or 0.1% DMSO. The split Renilla luciferase complementation assay has been described previously (Li BX, and Xiao X. Discovery of a small-molecule inhibitor of the KIX-KID interaction. Chembiochem: a European journal of chemical biology. 2009; 10(17):2721-4). In this assay, the KID and KIX domains were fused to the N- and C-terminal regions of Renilla luciferase, respectively. Once KIX binds phosphorylated KID, the Renilla luciferase regions were brought together, resulting in luciferase activity.
To test the ability of Compound A to disrupt CREB-CBP binding in cells, a split Renilla luciferase complementation assay was performed. […] This early timepoint was selected to permit accurate reporter gene activity measurement prior to the onset of anticipated global cell dysfunction or death induced by Compound A. Treatment with 3 μM Compound A reduced luciferase activity by 33.2±7.7% at this timepoint. […] Thus, Compound A inhibits CREB function through disruption of CREB:CBP interaction.

## N#Cc1ccc(NC(=O)c2cc3ccccc3cc2O)cc1 [Compound A, N-(4-cyanophenyl)-3-hydroxy-2-naphthamide]
[1]
  Bcl-XL expression: remained constant
  expression of Mcl-1: initially increased, then decreased at 72 hours
[1]; 72 hours
  transcription of Bcl-2: decreased
[2]; 3 μM
  reduction of CREB-driven luciferase activity: 33.2±7.7%
[2]; KG-1 cells, 3, 10 and 30 μM
  CREB-driven luciferase activity: significantly decreased; also recorded: reduced by Compound A in a dose-dependent fashion
